Reference: PubChem BioAssay (NCI)
Values joined by “and” are separate entries in the source; they are usually repeats but may differ in a detail not shown here. Identical values can stand only once.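 1) Cells in 96-well plates. 2) Compound, 48 h, 5 concentrations. 3) Linear interpolation between surrounding doses. 4) Unreached endpoint = highest concentration. Abbreviation: GI50, concentration required for 50% inhibition of growth. TGI: concentration producing complete growth inhibition.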

Tests used:
Test in all cases: NCI tumour cell line growth inhibition, 48 h
SR leukemia = system: SR leukemia
HOP-62 NSCLC = system: HOP-62 NSCLC
NCI/ADR-RES ovarian = system: NCI/ADR-RES ovarian
NCI-H460 lung = system: NCI-H460 lung
NCI-H226 lung = system: NCI-H226 lung
IGROV1 ovarian = system: IGROV1 ovarian
KM12 colon = system: KM12 colon
A549 NSCLC = system: A549 NSCLC
MDA-MB-231 breast = system: MDA-MB-231 breast
NCI-H23 lung = system: NCI-H23 lung

SMILES	GI50 (SR leukemia)	TGI (SR leukemia)	GI50 (HOP-62 NSCLC)	TGI (HOP-62 NSCLC)	GI50 (NCI/ADR-RES ovarian)	TGI (NCI/ADR-RES ovarian)	GI50 (NCI-H460 lung)	TGI (NCI-H460 lung)	GI50 (NCI-H226 lung)	TGI (NCI-H226 lung)	GI50 (IGROV1 ovarian)	GI50 (KM12 colon)	TGI (KM12 colon)	GI50 (A549 NSCLC)	TGI (A549 NSCLC)	GI50 (MDA-MB-231 breast)	TGI (MDA-MB-231 breast)	GI50 (NCI-H23 lung)	TGI (NCI-H23 lung)	TGI (IGROV1 ovarian)
CNC(=O)c1cccc(-c2ccc3c(N4CCOC[C@@H]4C)nc(N4CCOC[C@@H]4C)nc3n2)c1	0.249 µM and 0.133 µM and 0.104 µM	> 100 µM	0.153 µM and 0.273 µM and 0.17 µM	> 100 µM and > 5.18 µM and 10.2 µM	0.24 µM and 0.412 µM and 0.371 µM	3.56 µM and 5.12 µM and > 25.1 µM	0.0422 µM and 0.0853 µM and 0.0538 µM	> 100 µM	0.0438 µM and 0.149 µM and 0.115 µM	0.77 µM and 2.9 µM and 0.959 µM	0.0443 µM and 0.0381 µM and 0.0224 µM	0.0947 µM and 0.273 µM and 0.179 µM	> 100 µM	0.124 µM and 0.242 µM and 0.142 µM	> 100 µM and > 10 µM and 11.5 µM	0.181 µM and 0.168 µM and 0.184 µM	34.3 µM and > 10 µM and > 64 µM	0.111 µM and 0.273 µM and 0.245 µM	> 100 µM	
CN(C)c1ccc2c3c(c(=O)oc2c1)CCC3		> 100 µM		> 100 µM		> 100 µM		> 100 µM		> 100 µM			> 100 µM		> 100 µM		> 100 µM		> 100 µM	> 100 µM
S=C(Nc1ccc(Cl)cc1)Nc1ccc(-c2nc3ccccc3[nH]2)cc1	8.07 µM	> 21.5 µM	15 µM	30 µM	17.2 µM	> 57.4 µM	9.28 µM	> 43.4 µM	10 µM	> 46.6 µM	7.02 µM	4.45 µM	> 62 µM	14.3 µM	> 54.3 µM	3.14 µM	12.8 µM	3.89 µM	17.5 µM	23.7 µM
CC(=O)OC(C)(C)/C=C/C(=O)[C@](C)(O)[C@H]1[C@H](O)C[C@@]2(C)[C@@H]3CC=C4[C@@H](C[C@H](O)C(=O)C4(C)C)[C@]3(C)C(=O)C[C@]12C		1.21 µM				15.2 µM		1.37 µM					13.6 µM		11.4 µM		< 0.01 µM		4.07 µM	< 0.0132 µM
Cc1nc2cccc(NCc3ccc(C(=O)NO)cc3)c2c(=O)n1-c1ccccc1	1.43 µM	> 100 µM	1.65 µM	4.47 µM	1.53 µM	7.16 µM	2.21 µM	10.5 µM	2.01 µM	6.08 µM		1.8 µM	3.59 µM	2.22 µM	5.17 µM	2.5 µM	6.79 µM	1.63 µM	3.18 µM	
N=C(N)CCCCCCCCC(=N)N			30.9 µM	> 100 µM	14.8 µM	> 100 µM	18.8 µM	> 100 µM	15.7 µM	> 100 µM	52.9 µM	21.1 µM	> 100 µM	6.6 µM	> 100 µM	63.3 µM	> 100 µM	5.11 µM	70.4 µM	> 100 µM
Nc1ccccc1C#C/C=C\C#Cc1ccc(Cl)cc1Cl			16.6 µM	32.8 µM	4.42 µM	18.8 µM	10.7 µM	26.5 µM	19.2 µM	39.5 µM	14.8 µM	2.72 µM	14.4 µM	16 µM	44.2 µM	15.8 µM	35.6 µM	14.2 µM	31.5 µM	38.7 µM
O=C1c2ccccc2-c2c1c1ccccc1c(=O)n2CCNCCNCCn1c2c(c3ccccc3c1=O)C(=O)c1ccccc1-2			0.0288 µM	4.5 µM	1.11 µM	11.1 µM	0.0246 µM	7.59 µM	0.22 µM	18.9 µM	1.02 µM	0.0327 µM	1.72 µM	0.231 µM	> 38.2 µM	0.432 µM	5.72 µM	0.717 µM	> 30.6 µM	> 21.2 µM
C[C@H]1CCC/C=C/[C@@H]2C[C@H](O)C[C@H]2[C@H](O)[C@@H](S(=O)CCN(C)C)CC(=O)O1 (stereo partly specified)			0.458 µM	> 63.4 µM	0.0629 µM	> 100 µM	0.351 µM	> 100 µM	0.0562 µM	> 100 µM	0.337 µM	0.0351 µM	0.154 µM	0.178 µM	> 100 µM	0.114 µM	0.458 µM	0.229 µM	> 38.8 µM	
C/C=C(\C)C(=O)O[C@H]1C=CC(=O)O[C@H]1CNC(=O)[C@H](C)O			23.9 µM	54 µM	26.2 µM	81.4 µM	28.2 µM	94.2 µM	17.9 µM	46.7 µM	22.6 µM	17 µM	32 µM	31.1 µM	> 100 µM	19.1 µM	36.3 µM	22.1 µM	47.8 µM	53.3 µM
CC(=O)N1c2ccccc2Sc2cc(C(O)(C(F)(F)F)C(F)(F)F)ccc21				> 10 µM		> 10 µM		> 10 µM		> 10 µM			> 10 µM		> 10 µM		> 10 µM		> 10 µM	> 10 µM
Cc1cc(S(=O)(=O)Nc2nnc(-c3ccccc3)c(-c3ccccc3)n2)c(SCc2ccccc2)cc1Cl			22.9 µM	39.6 µM	32.8 µM	90.3 µM	23.8 µM	65.7 µM	27.7 µM	79.8 µM	37.3 µM	18.5 µM	43.1 µM	27.7 µM	> 100 µM	20.2 µM	41.9 µM	22.6 µM	48.1 µM	> 100 µM
